Experiment [1] relates to ENR-cultured 3D-embedded organoid. Nature of the experiment: 384 well-based 3D-embedded organoid screening (ENR, 6 days, FDA approved drug library, 10 μM): Cch-induced lysozyme secretion. The format is cell-based, murine. An excerpt:
Leveraging their experience in 2.5D culture organoid screening (Mead, et al., 2020 High-throughput organoid screening enables engineering of intestinal epithelial composition. bioRxiv 2020.04.27.063727; Example 2 and 5), Applicants optimized multiple parameters such as organoid number and density, Matrigel volume, and compound-induced secretion stimulation to detect secreted lysozyme from ENR-cultured 3D-embedded organoid. […] The scheme is shown in FIG. 31; briefly, (1) prepare small organoid fragments by mechanical disruption and culture in ENRCV media for 4 days to grow stem cell-rich organoid, (2) replace media to conventional organoid growth media (ENR) add compounds, and culture for 6 days in total, (3) measure Cch-induced lysozyme secretion and ATP abundance. Based on multiple condition examination results (see FIG. 32 as an example), Applicants concluded that 20 organoids/well and 7 μL Matrigel mixture/well is the reasonable culture condition for 384 well-based screening. Additionally, a Notch signaling inhibitor, DAPT, can be used as a positive control, and stimulating by carbachol helps broaden the window between negative and positive control samples (FIG. 32). Utilizing this newly established platform, Applicants performed 384 well-based high-throughput chemical compound screening, aiming for further identification of PC inducers. […] Applicants prepared duplicates for each sample to increase the reliability and chose a single dose point of drugs (10 μM) to execute the initial screening readily and efficiently while planning to analyze precise dose-responsiveness in the following validation step.
Applicants analyzed all the data by Python 3 as follows. Log 2 transformed lysozyme-derived fluorescent values were calculated; violin plots of negative and positive controls (FIG. 33) and histograms of samples were shown with respect to each assay plate (FIG. 34). […] To evaluate the compound effects, robust Z-scores were calculated based on the negative controls in each plate, and all results were concatenated. […]

In experiment [2] the test system is organoid line. Nature of the experiment: Validation and dose optimization of the FDA library hits: lysozyme secretion normalized to ATP abundance. The note with it: for lysozyme secretion normalized to ATP: 80 nM, different organoid line; for lysozyme secretion compared with KPT-330: in vitro validation, 80-320 nM. The format is cell-based. How it is done:
Applicants next validated the initial screening results by the lysozyme secretion assays at four doses from 80 nM to 10 μM. To evaluate the cell-line dependent effect, Applicants utilized a different organoid line, derived from a different animal. DAPT-treated samples were prepared as positive controls, the same as in the screen. Applicants measured ATP abundance simultaneously as a surrogate of cell number and used it for normalizing lysozyme values. […] To further optimize the dose of each drug, Applicants treated with the three compounds at narrower dose range (80-320 nM) and KPT-330, previously identified PC inducer, for comparison.

On to `C=C1/C(=C\C=C2/CCC[C@]3(C)[C@@H]([C@H](C)/C=C/[C@@H](O)C4CC4)CC[C@@H]23)C[C@@H](O)C[C@@H]1O` [Calcipotriene], for which, in experiment [1], the “effect on Cch-induced lysozyme secretion (hit identification)” value is reported as “identified as Paneth cell activators”. In experiment [2], the “lysozyme secretion normalized to ATP” value is “effects were validated” and the “lysozyme secretion compared with KPT-330” value is on record as “outperformed KPT-330”.
On the same counts, the results for `Nc1ncn([C@H]2C[C@H](O)[C@@H](CO)O2)c(=O)n1` [Decitabine, 5-aza-2′-deoxycytidine] are “identified as Paneth cell activators”, “effects were validated” and “outperformed KPT-330”.
On the same counts, the results for `Nc1nc2nc[nH]c2c(=S)[nH]1` [Thioguanine] are “identified as Paneth cell activators”, “effects were validated” and “outperformed KPT-330”.

These data come from patent US20230398130A1, “METHODS AND COMPOSITIONS FOR DIFFERENTIATING STEM CELLS” (Massachusetts Institute of Technology, priority 2020, published 2023).
